The values below come from PMC9851907, “A single 2′-O-methylation of ribosomal RNA gates assembly of a functional ribosome” (Nature Structural & Molecular Biology, 2022).

For this assay, the target named is T1, Nog2 (Nog2-3xFLAG) (Saccharomyces cerevisiae, UniProt P53742).
T1 construct: full-length, genomic C-terminal 3xFLAG-6xHis tag (kept); native anti-FLAG purification from yeast within pre-60S particle with unmodified G2922 (spb1-D52A cells)
Briefly: cryo-EM structure, […] A. The assay is classed as binding. The settings on record: Mg2+; GTPase active site; nucleotide co-purified; pre-60S with unmethylated G2922; Table 1 lists only Mg2+ as ligand.

For the molecule `Nc1nc2c(ncn2[C@@H]2O[C@H](COP(=O)(O)OP(=O)(O)O)[C@@H](O)[C@H]2O)c(=O)[nH]1` [GDP], the “cryo-EM structure, 2.9 A” value was “switch I and switch II (motifs G2 and G3) are apparently ordered around GDP”.
